Reference: ChEMBL document CHEMBL4602681, “Quintaquinone, a Merosesquiterpene from the Yellow Sponge Verongula cf. rigida Esper” (J Nat Prod, 2020)

Columns and labels:
[1] = Inhibition of steroid 5-alpha-reductase in human LNCAP cells assessed as reduction in 5- dihydrotestosterone formation incubated for 60 mins by LC-MS analysis; type: cell-based; conditions: 1 h
PC-3 = test: Antiproliferative activity against human PC3 cells assessed as reduction in cell viability by MTT assay; type: functional, cell-based
HeLa = test: Antiproliferative activity against human HeLa cells assessed as reduction in cell viability after 72 hrs by sulforhodamine B assay; type: functional, cell-based
MCF7 = test: Antiproliferative activity against human MCF7 cells assessed as reduction in cell viability after 72 hrs by sulforhodamine B assay; type: functional, cell-based; conditions: MCF7, 72 h
LNCaP = test: Inhibition of steroid 5-alpha-reductase in human LNCAP cells assessed as reduction in 5- dihydrotestosterone formation at 100 uM incubated for 60 mins by LC-MS analysis relative to control; type: cell-based

SMILES | IC50 [1] [µM] | IC50 (PC-3) [µM] | IC50 (HeLa) [µM] | IC50 (MCF7) [µM] | inhibition (LNCaP) [%]
C=C1CCC[C@H]2[C@](C)(CC3=C(O)C(=O)C=C(NCCc4ccccc4)C3=O)[C@@H](C)CC[C@]12C |  | > 10 | > 10 | > 10 | < 50
COC(=O)c1cc(O)c(O)c(C[C@H]2C(C)=CC[C@H]3C(C)(C)CCC[C@]23C)c1 |  | > 10 | > 10 | > 10 | < 50
COC(=O)c1cc(C[C@H]2C(C)=CC[C@H]3C(C)(C)CCC[C@]23C)c(O)c(O)c1O |  | > 10 | > 10 | > 10 | < 50
C=C1CCC[C@H]2[C@](C)(CC3=C(O)C(=O)C=C(NCC(C)C)C3=O)[C@@H](C)CC[C@]12C |  | > 10 | > 10 | > 10 | < 50
CC(C)(C)NC(=O)[C@H]1CC[C@H]2[C@@H]3CC[C@H]4NC(=O)C=C[C@]4(C)[C@H]3CC[C@]12C [FINASTERIDE] | 0.76 |  |  |  | 

More lines, main results first:

IC50 [1] [µM] | IC50 (PC-3) [µM] | IC50 (HeLa) [µM] | IC50 (MCF7) [µM] | SMILES | inhibition (LNCaP) [%]
0.73 | > 10 | > 10 | > 10 | COC1=CC(=O)C2=C(C[C@H]3[C@]4(C)CCCC(C)(C)[C@H]4CC[C@@]3(C)O2)C1=O | 
 | > 10 | > 10 | > 10 | C=C1CCC[C@H]2[C@](C)(CC3=C(O)C(=O)C=C(OC)C3=O)[C@@H](C)CC[C@]12C [ILIMAQUINONE] | < 50
 | > 10 | > 10 | > 10 | C=C1CCC[C@H]2[C@](C)(CC3=C(O)C(=O)C(CCCCC(C)=O)=C(OC)C3=O)[C@@H](C)CC[C@]12C | < 50
 | > 10 | > 10 | > 10 | C=C1CCC[C@H]2[C@](C)(CC3=C(O)C(=O)C=C(OC)C3=O)[C@@H](C)CC[C@@]12C | < 50
 | > 10 | > 10 | > 10 | COC1=CC(=O)C(O)=C(C/C=C(\C)CC/C=C(\C)CCC=C(C)C)C1=O | < 50
